Experimental data from patent US20130143929A1, “FUNGICIDAL IMIDAZOLES” (EI DU PONT DE NEMOURS AND COMPANY, priority 2010, published 2013).
Marks after values point to notes of the source that are not given here.

Assays:
Type in all cases: in vivo
[1] = tested on: Puccinia recondite f. sp. tritici (the causal agent of wheat leaf rust); assay: Test A: wheat leaf rust, preventive spray on wheat seedlings, visual disease rating; conditions: wheat leaf rust, preventive spray on wheat seedlings
Source text: (§1) General protocol for preparing test suspensions for Tests A-D: the test compounds were first dissolved in acetone in an amount equal to 3% of the final volume and then suspended at the desired concentration (in ppm) in acetone and purified water (50/50 mix by volume) containing 250 ppm of the surfactant Trem® 014 (polyhydric alcohol esters). The resulting test suspensions were then used in Tests A-D. Spraying a 200 ppm test suspension to the point of run-off on the test plants was the equivalent of a rate of 800 g/ha.
The test suspension was sprayed to the point of run-off on wheat seedlings. The following day the seedlings were inoculated with a spore suspension of Puccinia recondite f. sp. tritici (the causal agent of wheat leaf rust) and incubated in a saturated atmosphere at 20° C. for 24 h, and then moved to a growth chamber at 20° C. for 7 days, after which time visual disease ratings were made.
(§2) Results for Tests A-E are given in Table A. In the Table, a rating of 100 indicates 100% disease control and a rating of 0 indicates no disease control (relative to the controls). A dash (—) indicates no test results. An asterisk “*” next to the rating value indicates a 40 ppm test suspension was used.

[2] = tested on: Septoria tritici (the causal agent of wheat leaf blotch); assay: Test B: wheat leaf blotch, preventive spray on wheat seedlings, visual disease rating; conditions: wheat leaf blotch, preventive spray on wheat seedlings
Source text: as §1
(§3) The test suspension was sprayed to the point of run-off on wheat seedlings. The following day the seedlings were inoculated with a spore suspension of Septoria tritici (the causal agent of wheat leaf blotch) and incubated in a saturated atmosphere at 24° C. for 48 h, and then moved to a growth chamber at 20° C. for 19 days, after which time visual disease ratings were made.
as §2

[3] = tested on: Blumeria graminis f. sp. tritici (also known as Erysiphe graminis f. sp. tritici, the causal agent of wheat powdery mildew); assay: Test D: wheat powdery mildew, preventive spray on wheat seedlings, visual disease rating; conditions: wheat powdery mildew, preventive spray on wheat seedlings
Source text: as §1
The test suspension was sprayed to the point of run-off on wheat seedlings. The following day the seedlings were inoculated with a spore dust of Blumeria graminis f. sp. tritici, (also known as Erysiphe graminis f. sp. tritici, the causal agent of wheat powdery mildew) and incubated in a growth chamber at 20° C. for 8 days, after which time visual disease ratings were made.
as §2

[4] = tested on: Botrytis cinerea (the causal agent of tomato Botrytis); assay: Test C: tomato Botrytis, preventive spray on tomato seedlings, visual disease rating; conditions: tomato Botrytis, preventive spray on tomato seedlings
Source text: as §1
as §3, with “tomato” for “wheat”, “Botrytis cinerea” for “Septoria tritici”, “tomato Botrytis)” for “wheat leaf blotch)”, “20°” for “24°”, “24°” for “20°”, “3” for “19”
as §2

[5] = no asterisk (standard test suspension concentration, not 40 ppm)
[6] = asterisk: 40 ppm test suspension

SMILES | Test A rating (100 = 100% disease control, 0 = no disease control relative to the controls) [1, 5] | Test B rating (100 = 100% disease control, 0 = no disease control relative to the controls) [2, 5] | Test D rating (100 = 100% disease control, 0 = no disease control relative to the controls) [3, 5] | Test C rating (100 = 100% disease control, 0 = no disease control relative to the controls) [4, 5] | Test A rating (100 = 100% disease control, 0 = no disease control relative to the controls) [1, 6] | Test B rating (100 = 100% disease control, 0 = no disease control relative to the controls) [2, 6] | Test D rating (100 = 100% disease control, 0 = no disease control relative to the controls) [3, 6] | Test C rating (100 = 100% disease control, 0 = no disease control relative to the controls) [4, 6]
COc1ccc(C(O)c2c(Cl)nc(C)n2-c2ccc(F)cc2Cl)c(Cl)c1 (racemic) [compound 255] | 100% | 96% | 0% | 8% | – | – | – | –
Cc1ncc(C(O)c2ccc(Cl)cc2Cl)n1-c1ccc(F)cc1F (racemic) [compound 256] | 55% | 6% | 0% | 0% | – | – | – | –
COc1cc(F)c(C(O)c2cnc(C)n2-c2ccc(F)cc2F)c(F)c1 (racemic) [compound 257] | 92% | 24% | 0% | 0% | – | – | – | –
COc1cc(F)c(C(O)c2c(Br)nc(C)n2-c2ccc(F)cc2F)c(F)c1 (racemic) [compound 258] | 100% | 95% | 0% | 79% | – | – | – | –
Cc1nc(Br)c(C(O)c2ccc(Cl)cc2Cl)n1-c1ccc(F)cc1F (racemic) [compound 259] | 99% | 100% | 0% | 0% | – | – | – | –
COc1ccc(C(O)c2c(Cl)ncn2-c2c(F)cccc2F)c(Cl)c1 (racemic) [compound 260] | 100% | 100% | 96% | 100% | – | – | – | –
COc1cc(F)c(C(O)c2c(Cl)nc(C)n2-c2ccc(F)cc2F)c(F)c1 (racemic) [compound 269] | – | – | – | – | 100* % | 96* % | 0* % | 66* %
Cc1nc(Cl)c(C(O)c2ccc(Cl)cc2Cl)n1-c1ccc(F)cc1F (racemic) [compound 270] | – | – | – | – | 95* % | 69* % | 0* % | 0* %
Cc1ncc(C(O)c2c(F)cc(Cl)cc2F)n1-c1ccc(F)cc1F (racemic) [compound 271] | – | – | – | – | 0* % | 17* % | 0* % | 0* %
Cc1nc(Cl)c(C(O)c2ccc(F)cc2Br)n1-c1ccc(F)cc1Cl (racemic) [compound 272] | – | – | – | – | 100* % | 100* % | 21* % | 93* %
Cc1nc(Cl)n(-c2c(F)cc(Cl)cc2F)c1C(O)c1ccc(F)cc1F (racemic) [compound 273] | – | – | – | – | 100* % | 100* % | 0* % | 99* %
